Measurements taken from PMC6800809 (ChemMedChem, 2019).
Values after ≈ are worked out from the molar mass of the structure shown.

Columns and labels:
[1] = system: MbtA; settings: 44.2 μM MbtA, ligand 0.75 mM
[2] = system: HepG2 cells; assay: HepG2 cytotoxicity
[3] = system: RAW 264.7 cells
[4] = system: M. tuberculosis H37Rv; assay: MIC determination against M. tuberculosis H37Rv in liquid medium; assay type: cell-based; settings: Mycobacterium tuberculosis, 120 h, read-out: H37Rv MIC90
[5] = HepG2 cytotoxicity; settings: human, HepG2 cells

SMILES | Response in STD and Water-LOGSY experiments [1] | HepG2 cytotoxicity, IC50 towards cells grown in both media ([2]; glucose and galactose media) | Ratio (Glu/Gal) ([2]; ratio of HepG2 IC50 in glucose to galactose medium (mitochondrial toxicity)) | IC50 [3] | MIC90 [4] | IC50 at 2 days [5]
O=[N+]([O-])c1cc(C(F)(F)F)ccc1NCCc1c[nH]c2ccc(O)cc12 [Compound 5, 5-hydroxy-indol-3-ethylamino-(2-nitro-4-trifluoromethyl)benzene] | positive responses | relatively low cytotoxicity | 1.2 | 29 µM |  | 
CO[C@H]1/C=C/O[C@@]2(C)Oc3c(C)c(O)c4c(O)c(c(/C=N/N5CCN(C)CC5)c(O)c4c3C2=O)NC(=O)/C(C)=C\C=C\[C@H](C)[C@H](O)[C@@H](C)[C@@H](O)[C@@H](C)[C@H](OC(C)=O)[C@@H]1C [Rifampicin, reference compound] |  |  |  |  | 0.1 µM (≈ 0.0823 µg/mL) | > 100 µM
